pKi: −log10 of the molar value.

Sequence of Recombinant Human Poly(ADP-Ribose) Polymerase (PARP), PARP-1 (P09874 whole entry): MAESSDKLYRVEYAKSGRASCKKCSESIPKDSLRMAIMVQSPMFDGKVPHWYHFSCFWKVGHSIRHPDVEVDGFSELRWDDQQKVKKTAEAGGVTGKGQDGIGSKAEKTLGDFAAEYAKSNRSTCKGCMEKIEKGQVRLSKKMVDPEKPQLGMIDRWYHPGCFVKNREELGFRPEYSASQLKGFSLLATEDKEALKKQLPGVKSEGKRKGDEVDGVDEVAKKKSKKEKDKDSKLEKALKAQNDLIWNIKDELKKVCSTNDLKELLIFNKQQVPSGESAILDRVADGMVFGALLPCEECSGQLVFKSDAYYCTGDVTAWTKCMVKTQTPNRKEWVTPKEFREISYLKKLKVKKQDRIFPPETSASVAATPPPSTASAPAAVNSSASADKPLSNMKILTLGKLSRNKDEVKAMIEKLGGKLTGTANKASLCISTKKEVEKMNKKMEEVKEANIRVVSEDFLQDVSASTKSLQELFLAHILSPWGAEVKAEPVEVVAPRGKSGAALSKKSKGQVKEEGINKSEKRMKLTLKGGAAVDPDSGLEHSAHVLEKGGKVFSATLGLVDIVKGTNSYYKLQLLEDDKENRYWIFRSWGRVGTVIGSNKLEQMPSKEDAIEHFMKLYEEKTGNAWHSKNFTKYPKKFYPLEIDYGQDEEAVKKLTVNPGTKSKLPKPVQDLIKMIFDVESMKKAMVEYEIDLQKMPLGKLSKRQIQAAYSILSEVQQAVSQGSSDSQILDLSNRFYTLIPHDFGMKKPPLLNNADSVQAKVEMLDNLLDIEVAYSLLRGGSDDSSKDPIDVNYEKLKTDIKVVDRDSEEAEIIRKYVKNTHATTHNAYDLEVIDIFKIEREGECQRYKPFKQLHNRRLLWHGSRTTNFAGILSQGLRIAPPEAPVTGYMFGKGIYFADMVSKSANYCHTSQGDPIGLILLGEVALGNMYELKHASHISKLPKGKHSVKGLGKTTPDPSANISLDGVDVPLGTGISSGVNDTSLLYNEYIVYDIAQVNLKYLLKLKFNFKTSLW

This experiment concerns the target Recombinant Human Poly(ADP-Ribose) Polymerase (PARP), PARP-1 (Homo sapiens (Human), UniProt P09874). Conditions: read-out: PARP-1 (Ki); Table 1; text calls the values EC50s.
As a reminder, the pKi is the Ki on a negative log10 scale, so that one unit is a factor of ten. On to `CSc1cccc(NC(=O)c2cccc(Cc3n[nH]c(=O)c4c3CCCC4)c2)c1` [Example 360, N-(3-(methylthio)phenyl)-3-((4-oxo-3,4,5,6,7,8-hexahydrophthalazin-1-yl)methyl)benzamide], for which the pKi was 7.03. `CSc1ccc(NC(=O)c2cccc(Cc3n[nH]c(=O)c4c3CCCC4)c2)cc1` [Example 361, N-(4-(methylthio)phenyl)-3-((4-oxo-3,4,5,6,7,8-hexahydrophthalazin-1-yl)methyl)benzamide]: the pKi is 7.12. With `O=C(Nc1ccc(N2CCCCC2)cc1)c1cccc(Cc2n[nH]c(=O)c3c2CCCC3)c1` [Example 362, 3-((4-oxo-3,4,5,6,7,8-hexahydrophthalazin-1-yl)methyl)-N-(4-piperidin-1-ylphenyl)benzamide] the figure was 6.73. Turning to `O=C(Nc1ccc(N2CCOCC2)cc1)c1cccc(Cc2n[nH]c(=O)c3c2CCCC3)c1` [Example 363, N-(4-morpholin-4-ylphenyl)-3-((4-oxo-3,4,5,6,7,8-hexahydrophthalazin-1-yl)methyl)benzamide], the pKi was 6.88. As for `O=C(Nc1ccccc1Nc1ccccc1)c1cccc(Cc2n[nH]c(=O)c3c2CCCC3)c1` [Example 364, N-(2-anilinophenyl)-3-((4-oxo-3,4,5,6,7,8-hexahydrophthalazin-1-yl)methyl)benzamide], the pKi was 6.50. Consider `COc1ccc(Nc2ccc(NC(=O)c3cccc(Cc4n[nH]c(=O)c5c4CCCC5)c3)cc2)cc1` [Example 365, N-(4-((4-methoxyphenyl)amino)phenyl)-3-((4-oxo-3,4,5,6,7,8-hexahydrophthalazin-1-yl)methyl)benzamide], for which the pKi is 6.92.

As for `O=C(Nc1ccc2ncccc2c1)c1cccc(Cc2n[nH]c(=O)c3c2CCCC3)c1` [Example 366, 3-((4-oxo-3,4,5,6,7,8-hexahydrophthalazin-1-yl)methyl)-N-quinolin-6-ylbenzamide], the pKi was 7.64. In the case of `O=C(Nc1cccc2c(O)cccc12)c1cccc(Cc2n[nH]c(=O)c3c2CCCC3)c1` [Example 367, N-(5-hydroxy-1-naphthyl)-3-((4-oxo-3,4,5,6,7,8-hexahydrophthalazin-1-yl)methyl)benzamide], the pKi was 7.35. Turning to `O=C(Nc1ccc2cn[nH]c2c1)c1cccc(Cc2n[nH]c(=O)c3c2CCCC3)c1` [Example 368, N-1H-indazol-6-yl-3-((4-oxo-3,4,5,6,7,8-hexahydrophthalazin-1-yl)methyl)benzamide], the pKi is 7.25. With `O=C1CC[C@@H]2COc3ccc(Cc4n[nH]c(=O)c5c4CCCC5)cc3N12` [Example 371] the figure was 7.85. `O=C(NCCc1ccccc1)c1cccc(Cc2n[nH]c(=O)c3c2CCCC3)c1` [Example 375, 3-((4-oxo-3,4,5,6,7,8-hexahydrophthalazin-1-yl)methyl)-N-(2-phenylethyl)benzamide]: the pKi is 7.29. Regarding `Cc1ccccc1CCNC(=O)c1cccc(Cc2n[nH]c(=O)c3c2CCCC3)c1` [Example 376, N-(2-(2-methylphenyl)ethyl)-3-((4-oxo-3,4,5,6,7,8-hexahydrophthalazin-1-yl)methyl)benzamide], the pKi is 6.76. For `Cc1cccc(CCNC(=O)c2cccc(Cc3n[nH]c(=O)c4c3CCCC4)c2)c1` [Example 377, N-(2-(3-methylphenyl)ethyl)-3-((4-oxo-3,4,5,6,7,8-hexahydrophthalazin-1-yl)methyl)benzamide], the pKi was 7.38. As for `Cc1ccc(CCNC(=O)c2cccc(Cc3n[nH]c(=O)c4c3CCCC4)c2)cc1` [Example 378, N-(2-(4-methylphenyl)ethyl)-3-((4-oxo-3,4,5,6,7,8-hexahydrophthalazin-1-yl)methyl)benzamide], the pKi was 7.55. In the case of `O=C(NCCc1ccccn1)c1cccc(Cc2n[nH]c(=O)c3c2CCCC3)c1` [Example 379, 3-((4-oxo-3,4,5,6,7,8-hexahydrophthalazin-1-yl)methyl)-N-(2-pyridin-2-ylethyl)benzamide], the pKi was 7.70.

As for `O=C(NCCc1cccnc1)c1cccc(Cc2n[nH]c(=O)c3c2CCCC3)c1` [Example 380, 3-((4-oxo-3,4,5,6,7,8-hexahydrophthalazin-1-yl)methyl)-N-(2-pyridin-3-ylethyl)benzamide], the pKi was 7.15. As to `O=C(NCCc1ccncc1)c1cccc(Cc2n[nH]c(=O)c3c2CCCC3)c1` [Example 381, 3-((4-oxo-3,4,5,6,7,8-hexahydrophthalazin-1-yl)methyl)-N-(2-pyridin-4-ylethyl)benzamide], the pKi was 7.17.

Take `COc1ccccc1CCNC(=O)c1cccc(Cc2n[nH]c(=O)c3c2CCCC3)c1` [Example 382, N-(2-(2-methoxyphenyl)ethyl)-3-((4-oxo-3,4,5,6,7,8-hexahydrophthalazin-1-yl)methyl)benzamide]: the pKi is 7.10.

As to `COc1cccc(CCNC(=O)c2cccc(Cc3n[nH]c(=O)c4c3CCCC4)c2)c1` [Example 383, N-(2-(3-methoxyphenyl)ethyl)-3-((4-oxo-3,4,5,6,7,8-hexahydrophthalazin-1-yl)methyl)benzamide], the pKi is 7.36. In the case of `COc1ccc(CCNC(=O)c2cccc(Cc3n[nH]c(=O)c4c3CCCC4)c2)cc1` [Example 384, N-(2-(4-methoxyphenyl)ethyl)-3-((4-oxo-3,4,5,6,7,8-hexahydrophthalazin-1-yl)methyl)benzamide], the pKi was 7.40. The same measure for `O=C(NCCc1ccccc1F)c1cccc(Cc2n[nH]c(=O)c3c2CCCC3)c1` [Example 385, N-(2-(2-fluorophenyl)ethyl)-3-((4-oxo-3,4,5,6,7,8-hexahydrophthalazin-1-yl)methyl)benzamide]: 7.38; for `O=C(NCCc1cccc(F)c1)c1cccc(Cc2n[nH]c(=O)c3c2CCCC3)c1` [Example 386, N-(2-(3-fluorophenyl)ethyl)-3-((4-oxo-3,4,5,6,7,8-hexahydrophthalazin-1-yl)methyl)benzamide]: 7.48; for `O=C(NCCc1ccc(F)cc1)c1cccc(Cc2n[nH]c(=O)c3c2CCCC3)c1` [Example 387, N-(2-(4-fluorophenyl)ethyl)-3-((4-oxo-3,4,5,6,7,8-hexahydrophthalazin-1-yl)methyl)benzamide]: 7.36. With `O=C(NCCc1ccccc1Cl)c1cccc(Cc2n[nH]c(=O)c3c2CCCC3)c1` [Example 388, N-(2-(2-chlorophenyl)ethyl)-3-((4-oxo-3,4,5,6,7,8-hexahydrophthalazin-1-yl)methyl)benzamide], the pKi was 7.06.

Regarding `O=C(NCCc1cccc(Cl)c1)c1cccc(Cc2n[nH]c(=O)c3c2CCCC3)c1` [Example 389, N-(2-(3-chlorophenyl)ethyl)-3-((4-oxo-3,4,5,6,7,8-hexahydrophthalazin-1-yl)methyl)benzamide], the pKi is 7.32.

Turning to `O=C(NCCc1ccc(Cl)cc1)c1cccc(Cc2n[nH]c(=O)c3c2CCCC3)c1` [Example 390, N-(2-(4-chlorophenyl)ethyl)-3-((4-oxo-3,4,5,6,7,8-hexahydrophthalazin-1-yl)methyl)benzamide], the pKi was 7.51.

Regarding `O=C(NCCc1ccc(-c2ccccc2)cc1)c1cccc(Cc2n[nH]c(=O)c3c2CCCC3)c1` [Example 393, N-(2-(1,1′-biphenyl-4-yl)ethyl)-3-((4-oxo-3,4,5,6,7,8-hexahydrophthalazin-1-yl)methyl)benzamide], the pKi was 7.15. With `O=C(NCCc1cccc(C(F)(F)F)c1)c1cccc(Cc2n[nH]c(=O)c3c2CCCC3)c1` [Example 394, 3-((4-oxo-3,4,5,6,7,8-hexahydrophthalazin-1-yl)methyl)-N-(2-(3-(trifluoromethyl)phenyl)ethyl)benzamide] the figure was 7.66; with `O=C(NCCc1ccc(C(F)(F)F)cc1)c1cccc(Cc2n[nH]c(=O)c3c2CCCC3)c1` [Example 395, 3-((4-oxo-3,4,5,6,7,8-hexahydrophthalazin-1-yl)methyl)-N-(2-(4-(trifluoromethyl)phenyl)ethyl)benzamide], 7.42; with `O=C(NCCc1ccc(Oc2ccccc2)cc1)c1cccc(Cc2n[nH]c(=O)c3c2CCCC3)c1` [Example 396, 3-((4-oxo-3,4,5,6,7,8-hexahydrophthalazin-1-yl)methyl)-N-(2-(4-phenoxyphenyl)ethyl)benzamide], 7.08.

For the compound `Cc1ccc(CCNC(=O)c2cccc(Cc3n[nH]c(=O)c4c3CCCC4)c2)cc1C` [Example 397], the pKi is 7.30. Consider `Cc1ccc(CCNC(=O)c2cccc(Cc3n[nH]c(=O)c4c3CCCC4)c2)c(C)c1` [Example 398, N-(2-(2,4-dimethylphenyl)ethyl)-3-((4-oxo-3,4,5,6,7,8-hexahydrophthalazin-1-yl)methyl)benzamide], for which the pKi was 7.09. Take `Cc1ccc(C)c(CCNC(=O)c2cccc(Cc3n[nH]c(=O)c4c3CCCC4)c2)c1` [Example 399, N-(2-(2,5-dimethylphenyl)ethyl)-3-((4-oxo-3,4,5,6,7,8-hexahydrophthalazin-1-yl)methyl)benzamide]: the pKi was 7.19. As for `CCOc1cc(CCNC(=O)c2cccc(Cc3n[nH]c(=O)c4c3CCCC4)c2)ccc1OC` [Example 400, N-(2-(3-ethoxy-4-methoxyphenyl)ethyl)-3-((4-oxo-3,4,5,6,7,8-hexahydrophthalazin-1-yl)methyl)benzamide], the pKi is 7.66. For the compound `CCOc1ccc(CCNC(=O)c2cccc(Cc3n[nH]c(=O)c4c3CCCC4)c2)cc1OC` [Example 401, N-(2-(4-ethoxy-3-methoxyphenyl)ethyl)-3-((4-oxo-3,4,5,6,7,8-hexahydrophthalazin-1-yl)methyl)benzamide], the pKi was 7.32. Turning to `COc1cccc(CCNC(=O)c2cccc(Cc3n[nH]c(=O)c4c3CCCC4)c2)c1OC` [Example 402, N-(2-(2,3-dimethoxyphenyl)ethyl)-3-((4-oxo-3,4,5,6,7,8-hexahydrophthalazin-1-yl)methyl)benzamide], the pKi is 7.07.

On to `COc1ccc(CCNC(=O)c2cccc(Cc3n[nH]c(=O)c4c3CCCC4)c2)c(OC)c1` [Example 403, N-(2-(2,4-dimethoxyphenyl)ethyl)-3-((4-oxo-3,4,5,6,7,8-hexahydrophthalazin-1-yl)methyl)benzamide], for which the pKi is 7.25.

(Values after patent US9283222B2 (priority 2006, dated 2016).)
